The values that follow come from patent US20010010827A1, “Method and composition for treatment of headache using magnesium” (priority 1991, published 2001).

The test system of data set [1] is headache (migraine, cluster, chronic migrainous, chronic tension-type). The text has this: Forty consecutive patients who presented to the headache clinic with a moderate or severe headache of any type (4 or higher on a verbal 1 to 10 scale) were enrolled in this study after an informed consent. […] Patients with renal, cardiac, diabetic or other medical problems were excluded. The international Headache Society classification was used to diagnose all patients.^23 Age-matched healthy volunteers served as control subjects.
Immediately prior to the magnesium infusion a blood sample of serum IMg^2+, total magnesium (TMg) and ionized calcium (ICa^2+) was drawn under anaerobic conditions. The laboratory personnel (B.T.A., B.M.A.) were blinded as the blood samples were not accompanied by any clinical information, while the clinician administering the infusion (A.M.) received test results several days after the completion of the evaluation. Serum levels of IMg^2+ and ICa^2+ were measured using ion-selective electrodes with a NOVA Biomedical Stat Profile 8 Analyzer.^16-18 The lower limit of normal for IMg^2+ levels in this study was 0.55/mmol/L. The normal range for the ICa^2+/IMg^2+ ratio is 1.92-2.08.
Headache intensity was measured on a verbal 1 to 10 scale prior to and 15 minutes after the infusion. A greater than 50% reduction of pain intensity was considered a positive response. The recurrence or worsening of a headache within the following 24 was determined in a telephone interview on the following day. The clinical response to the IMg^2+ levels was correlated. The correlation was considered to be positive if patients with a normal IMg^2+ level (≧0.55 mmol/L) had no relief or less than 24 hrs of relief. In patients with low IMg^2+ levels (<0.55 mmol/L), a correlation was considered positive only if relief lasted for more than 24 hrs.
Mean values±S.E.M. were calculated and compared for statistical significance by a Student's t-test, ANOVA with Scheffe's contrast test, analysis of co-variance for age, and linear regression analysis, where appropriate. Chi-Square tests were also utilized where appropriate. A p-value of less than 0.05 was considered significant.

Data set [2] concerns chronic migrainous headache. Description: Therapies tried in patient #27 for two months before the MgSO4 infusion. Conditions: acetaminophen 1000 mg or ibuprofen 400 mg four times/day, nabumetone 1000 mg/day for two weeks, cyproheptadine 4 mg nightly for two weeks. The data set is classed as in vivo, human. As to the method:
Long-term results in patients with intermittent migraine attacks is difficult to gauge because of the variable frequency of migraines in these patients. Responses in patients with chronic headaches also varied. […] Various therapists (i.e., acetaminophen—1000 mg or ibuprofen—400 mg-four times/day; nabumetone— 1000 mg/day for two weeks; cyproheptadine—4 mg nightly for two weeks; physical exercise) were tried in this patient for two months prior to the infusion with no relief.

Data set [3] in a line: Oral glucose loading: ionized, total and intracellular free magnesium. It is filed as in vivo, human. The conditions noted are these: oral glucose 100 gm. As to the method: Ionized magnesium, serum total magnesium, and plasma renin activity (PRA) in fasting normotensive (NT) (n=20), essential hypertensive (n=28) subjects was monitored before, and 60, 90, 120 and 180 minutes after oral glucose loading (100 gm). Results were compared to intracellular free magnesium values obtained at the same time intervals as measured using ^31P-NMR spectroscopy.

Setting [4] is: of the 40 patients given IV MgSO4.

Read-outs that look alike come from different tables or passages of the source.

For the compound `O=S(=O)([O-])[O-].[Mg+2]` [MgSO4, magnesium sulfate], the other side effects result in data set [1] (40 patients, IV infusion) is given as “No other side effects were noted”. In addition, in data set [1] (almost all patients), the “side effect during the IV infusion” value is recorded as “flushed feeling”. For the same compound, the duration of relief entry is “approximately 48 hours” in data set [1] (cluster headache, repeat infusions of 1 to 3 gram each); 1 to 2 h in data set [1] (most patients whose headache returned within 24 hours); 28 h in data set [1] (patient #17, chronic cluster headache, after the initial and each of three subsequent infusions); 24 h in data set [1] (patient #28, chronic migrainous headache); “two-seven” in data set [1] (the other four cluster headache patients). The “Return Within 24 hr” value in data set [1] (individual chronic tension headache patients, recurrence or worsening of headache within 24 hr) is reported as “N”. Moreover, the Response result in data set [1] (individual cluster headache patients, 1 g MgSO4 IV over 5 min, positive = greater than 50% reduction of pain intensity 15 min after infusion) was “Y”. Also, the “onset of improvement of headache” value in data set [1] (most patients) was “began to improve before the end of infusion”. In addition, the “number of patients with persistent relief of headache beyond 24 hours” value in data set [1] (of the 32 initial responders) came to 18 patients. For the same compound, the “number of patients with at least a 50% initial reduction of pain intensity” value in data set [1] (setting [4]) is listed as 32 patients. The “patients with at least a 50% initial reduction of pain intensity” value in data set [1] (setting [4]) was 80%. Moreover, in data set [1] (patient #27 (youngest patient), single infusion), the persistence of response entry is reported as “positive response to Mg that persists five months later”. Moreover, in data set [1] (patients #18 and #19, episodic clusters, single infusion), the “outcome of cluster episode” value was “aborted the entire cluster episode”. In addition, the “time to return of headaches” value in data set [1] (patients #24 and #25, episodic clusters) was at most 24 h. Further, in data set [1] (within 5 min of infusion), the “patients with complete elimination of pain” value came to 80%.
As for `CC(=O)Nc1ccc(O)cc1` [acetaminophen], the relief of headache entry in data set [2] is “no relief”.
For `O=C[C@H](O)[C@@H](O)[C@H](O)[C@H](O)CO` [glucose], the “total magnesium values after glucose loading” value in data set [3] was “did not differ”. In addition, the “ionized Mg2+ levels after oral glucose loading” value in data set [3] (elevated from 0.60±0.02, ion selective electrode, p<0.01) amounted to 0.64 ± 0.02 mM. The “intracellular Mg after oral glucose loading” value in data set [3] (lowered from 219± 12, 31P-NMR, p<0.01) was determined as 193 ± 13 µM.
Regarding `CC(C)Cc1ccc(C(C)C(=O)O)cc1` (centres unmarked) [ibuprofen], in data set [2], the relief of headache entry was “no relief”.
The same measure, in the same setting: the same measure for `COc1ccc2cc(CCC(C)=O)ccc2c1` [nabumetone]: “no relief”.
